Experimental data from publication PMC8703108, “Identifying of Anti-Thrombin Active Components From Curcumae Rhizoma by Affinity-Ultrafiltration Coupled With UPLC-Q-Exactive Orbitrap/MS” (Frontiers in Pharmacology, 2021).

Molecular target: T1, thrombin (THR, FIIα) (Homo sapiens, UniProt P00734)
T1 construct: gene F2; human recombinant THR
Experiment: chromogenic substrate S-2238 assay; affinity ultrafiltration LC-MS hit
Format: biochemical

Structure (SMILES) | IC50
CC(=O)OC(CCc1ccc(O)c(O)c1)CC(CCc1ccc(O)c(O)c1)OC(C)=O (stereo not drawn) [C7, 4,4′-[3,5-bis(acetyloxy)-1,7-heptanediyl]bis-1,2-benzenediol] | 358 µM
CC(=O)OC(CCc1ccc(O)cc1)CC(O)CCc1ccc(O)cc1 (stereo not drawn) [C8, 3-acetate-1,7-bis(4-hydroxyphenyl)-3,5-heptanediol] | 9.92 µM
CC(=O)OC(CCc1ccc(O)cc1)CC(CCc1ccc(O)c(O)c1)OC(C)=O (stereo not drawn) [C11, 4-[3,5-bis(acetyloxy)-7-(4-hydroxyphenyl)heptyl]-1,2-benzenediol] | 654 µM
